Test results from the supplement of paper PMC10883282.
Where a name gives a salt, the structure may show the parent alone. ± gives the standard deviation of the averaged measurements.

Tested on: SK-ES-1
Assay: relative viability vs DMSO control (72 h) (fraction); higher = more viable cells
Summary of the method: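 Sarcoma cell lines in 384-well plates, seeded to reach 80–90% confluence, were given compound after 24 h and kept 72 h at 37 °C, 5% CO2, with 0.1% DMSO vehicle and a 5 µM positive control. Relative viability came from ATPLite as percent growth, averaged over up to triplicate wells. On the rescaled values, 1 equals full and 0 equals none.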

| SMILES | relative viability (0.00017 µM) | relative viability (0.00051 µM) | relative viability (0.00152 µM) | relative viability (0.00457 µM) | relative viability (0.01372 µM) | relative viability (0.04115 µM) | relative viability (0.1235 µM) | relative viability (0.3704 µM) | relative viability (1.111 µM) | relative viability (3.333 µM) | relative viability (10 µM) |
| --- | --- | --- | --- | --- | --- | --- | --- | --- | --- | --- | --- |
| C[C@@H]1COCCN1c1cc(-c2ccnn2C)c2ccnc(-c3ccn[nH]3)c2n1 | 1.03 ± 0.031 | 1.05 ± 0.03 | 1.03 ± 0.052 | 1.09 ± 0.055 | 1.05 ± 0.039 | 0.856 ± 0.024 | 0.562 ± 0.037 | 0.285 ± 0.0067 | 0.156 ± 0.0046 | 0.101 ± 0.0046 | 0.112 ± 0.0035 |
| CCN1CCN(Cc2ccc(Nc3ncc(F)c(-c4cc(F)c5nc(C)n(C(C)C)c5c4)n3)nc2)CC1 [Abemaciclib] | 1.03 ± 0.032 | 1.04 ± 0.027 | 0.995 ± 0.031 | 1 ± 0.052 | 0.922 ± 0.055 | 0.728 ± 0.018 | 0.481 ± 0.035 | 0.413 ± 0.012 | 0.38 ± 0.0066 | 0.346 ± 0.01 | 0.00807 ± 0.00042 |
| CCc1cc2c(cc1N1CCC(N3CCOCC3)CC1)C(C)(C)c1[nH]c3cc(C#N)ccc3c1C2=O [Alectinib] | 1 ± 0.048 | 1.04 ± 0.023 | 1.07 ± 0.025 | 1.07 ± 0.025 | 1.02 ± 0.031 | 1.03 ± 0.02 | 1.06 ± 0.084 | 1.01 ± 0.068 | 1.08 ± 0.056 | 1.04 ± 0.035 | 0.915 ± 0.068 |
| Cc1nc(NC(=O)N2CCC[C@H]2C(N)=O)sc1-c1ccnc(C(C)(C)C(F)(F)F)c1 [Alpelisib] | 1.02 ± 0.032 | 1 ± 0.047 | 1.01 ± 0.039 | 1.01 ± 0.054 | 0.995 ± 0.057 | 0.931 ± 0.033 | 0.888 ± 0.052 | 0.675 ± 0.057 | 0.558 ± 0.0047 | 0.425 ± 0.024 | 0.289 ± 0.02 |
| Cn1cc(-c2cc3c(N4CCN(c5ncc([C@@](C)(N)c6ccc(F)cc6)cn5)CC4)ncnn3c2)cn1 [Avapritinib] | 0.98 ± 0.026 | 0.981 ± 0.045 | 0.941 ± 0.011 | 1 ± 0.018 | 0.989 ± 0.05 | 0.96 ± 0.042 | 0.948 ± 0.027 | 0.975 ± 0.036 | 0.906 ± 0.018 | 0.778 ± 0.071 | 0.579 ± 0.022 |
| CC(C)NC(=O)C1CCC(n2c(NC(=O)c3ccc(F)cc3)nc3ccc(CN4CCC(C(C)(C)O)CC4)cc32)CC1 (centres undefined) [Belizatinib] | 1.03 ± 0.038 | 1.02 ± 0.041 | 1.06 ± 0.031 | 1.05 ± 0.029 | 1.05 ± 0.039 | 1.08 ± 0.032 | 0.943 ± 0.065 | 0.633 ± 0.031 | 0.311 ± 0.013 | 0.208 ± 0.01 | 0.0946 ± 0.0023 |
| Cn1cnc2c(F)c(Nc3ccc(Br)cc3F)c(C(=O)NOCCO)cc21 [Binimetinib] | 1.03 ± 0.019 | 1.02 ± 0.018 | 0.988 ± 0.021 | 0.984 ± 0.058 | 0.95 ± 0.028 | 0.957 ± 0.045 | 0.983 ± 0.036 | 0.923 ± 0.015 | 0.945 ± 0.05 | 0.893 ± 0.027 | 0.861 ± 0.077 |
| Nc1cc(C(F)(F)F)c(-c2cc(N3CCOCC3)nc(N3CCOCC3)n2)cn1 [Buparlisib] | 1.03 ± 0.025 | 1 ± 0.052 | 1.02 ± 0.037 | 1.04 ± 0.035 | 1.03 ± 0.029 | 1.04 ± 0.019 | 0.93 ± 0.033 | 0.749 ± 0.035 | 0.157 ± 0.014 | 0.041 ± 0.00093 | 0.0484 ± 0.0029 |
| CNC(=O)c1ccc(-c2cnc3ncc(Cc4ccc5ncccc5c4)n3n2)cc1F [Capmatinib] | 1.06 ± 0.011 | 1.05 ± 0.022 | 1.11 ± 0.023 | 1.08 ± 0.04 | 1.06 ± 0.021 | 1.09 ± 0.015 | 1.09 ± 0.048 | 1.08 ± 0.049 | 1.12 ± 0.03 | 1.08 ± 0.026 | 1.07 ± 0.026 |
| COc1cc2c(Oc3ccc4[nH]c(C)cc4c3F)ncnc2cc1OCCCN1CCCC1 [Cediranib] | 1.04 ± 0.014 | 1.07 ± 0.058 | 1.1 ± 0.02 | 1.06 ± 0.033 | 1.06 ± 0.066 | 1.07 ± 0.015 | 1.062 ± 0.0014 | 1.07 ± 0.064 | 0.877 ± 0.033 | 0.763 ± 0.019 | 0.133 ± 0.049 |
| COc1c(OCCCN2CCOCC2)ccc2c1N=C(NC(=O)c1cnc(N)nc1)N1CCN=C21 [Copanlisib] | 1.02 ± 0.022 | 1.07 ± 0.036 | 1.01 ± 0.021 | 0.808 ± 0.019 | 0.629 ± 0.015 | 0.4325 ± 0.0023 | 0.3049 ± 0.0025 | 0.214 ± 0.016 | 0.15 ± 0.0035 | 0.0822 ± 0.0034 | 0.0455 ± 0.0028 |
| CN1CCN(c2ccc3nc(-c4c(N)c5c(F)cccc5[nH]c4=O)[nH]c3c2)CC1 [Dovitinib] | 1.02 ± 0.013 | 1.07 ± 0.037 | 1.044 ± 0.0086 | 1.03 ± 0.022 | 1.07 ± 0.015 | 0.963 ± 0.049 | 0.937 ± 0.039 | 0.676 ± 0.012 | 0.365 ± 0.0063 | 0.155 ± 0.017 | 0.0451 ± 0.0026 |
| COc1cccc2c1C(=O)c1c(O)c3c(c(O)c1C2=O)C[C@@](O)(C(=O)CO)C[C@@H]3O[C@H]1C[C@H](N)[C@H](O)[C@H](C)O1 [Doxorubicin Hydrochloride] | 0.999 ± 0.033 | 1.05 ± 0.074 | 1 ± 0.057 | 0.991 ± 0.085 | 0.604 ± 0.065 | 0.307 ± 0.025 | 0.123 ± 0.014 | 0.0254 ± 0.0066 | 0.000533 ± 0.00072 | -0.000167 ± 0.00091 | 0.00357 ± 0.00093 |
| Cc1cnc(Nc2ccc(OCCN3CCCC3)cc2)nc1Nc1cccc(S(=O)(=O)NC(C)(C)C)c1 [Fedratinib] | 0.99 ± 0.063 | 1.03 ± 0.045 | 1.047 ± 0.01 | 1.06 ± 0.028 | 1.04 ± 0.016 | 1.03 ± 0.023 | 0.859 ± 0.067 | 0.489 ± 0.014 | 0.123 ± 0.01 | 0.0173 ± 0.002 | 0.0056 ± 0.00035 |
